# Measurements reported in US20240190855A1 (Relay Therapeutics, Inc., priority 2021, published 2024).
# Molecular target: T1, CDK2/Cyclin E complex (Homo sapiens, UniProt P24941)
# T1 construct: purchased Eurofins 14-475
# Assay: CDK2/Cyclin E fluorescence-based microfluidic mobility shift assay (CDK2 Biochemical Caliper Assay)
# Details: read-out: Biochemical CDK2/CyclinE Caliper IC50
# Experimental: Compounds of the present disclosure were tested in a CDK2/Cyclin E fluorescence-based microfluidic mobility shift assay (PerkinElmer).
# The active wild type CDK2/Cyclin E complex was purchased from Eurofins (14-475). Compound stocks were prepared in DMSO and were serially diluted into 11 concentrations by 3-fold dilution. […] Compounds were incubated in the presence of CDK2/Cyclin E complex and ATP for 30 minutes at room temperature. Catalytic reaction was initiated with the addition of 5 uL of a 4× peptide solution containing 6 uM fluorescently label substrate peptide, FL Peptide 18 (aa sequence 5-FAM-QSPKKG, PerkinElmer, 760362) in 1× reaction buffer.
# The final reaction components were 0.1 nM CDK2/Cyclin E, 2000 uM ATP and 1.5 uM FL Peptide 18 and 1% DMSO. Reactions were incubated RT for 20 hr and terminated with 75 uL of a stopping solution containing 0.5 M EDTA. Samples were analyzed using a LabChip EZ reader (PerkinElmer).
row,IC50,Structure (SMILES)
1,0.25 to 1 µM,Cc1cc(CC(=O)Nc2cc([C@H]3CC[C@@H](NC(N)=O)C3)[nH]n2)on1 (racemic) [Example 10]
2,1 to 100 µM,Cc1cc(CC(=O)Nc2cc([C@H]3C[C@@H]4CC[C@H]3C4)[nH]n2)on1 (racemic) [Example 49]
3,1 to 100 µM,Cc1cc(CC(=O)Nc2cc(N3CC[C@@H](COC(=O)NC4(C)CC4)C3)[nH]n2)on1 (racemic) [Example 53]
4,≤ 0.1 µM,CC(C)NC(=O)O[C@@H]1CC[C@H](c2cc(Nc3nc4cccnc4o3)n[nH]2)C1 (racemic) [Example 140]
5,1 to 100 µM,COCc1cc(C(=O)Nc2cc([C@H]3CC[C@H](c4ccc(C)[nH]c4=O)C3)[nH]n2)n(C)n1 (racemic) [Example 517]
6,0.25 to 1 µM,COCc1cc(C(=O)Nc2cc([C@H]3CC[C@@H](c4ccc(C)[nH]c4=O)C3)[nH]n2)n(C)n1 (racemic) [Example 518]
7,1 to 100 µM,COCc1cc(C(=O)Nc2cc([C@@H]3CC[C@@H](c4ccc(C(C)C)cn4)C3)[nH]n2)n(C)n1 (racemic) [Example 571]
8,≤ 0.1 µM,C[C@H]1CC[C@H](C)N1C(=O)OC[C@H]1C[C@@H](c2cc(Nc3ccc4c(n3)C(C)(C)NC4=O)n[nH]2)C1 (racemic) [Example 593]
9,1 to 100 µM,"Cc1cc(CC(=O)Nc2cc([C@H]3CCC[C@H](OC(=O)NC4(C)CC4)CC3)[nH]n2)on1 (single isomer, unassigned) [Example 26]"
10,≤ 0.1 µM,"Cc1cc(CC(=O)Nc2cc([C@@H]3C[C@H](OC(=O)NC4(C)CC4)CO3)[nH]n2)on1 (single isomer, unassigned) [Example 69]"
11,1 to 100 µM,"CC(C)NC(=O)N[C@@H]1CC[C@H](c2cc(Nc3ncccn3)n[nH]2)C1 (single isomer, unassigned) [Example 86]"
12,0.25 to 1 µM,"Cc1cc(CC(=O)Nc2cc([C@H]3CC[C@@H](N4CC5(CC5)NC4=O)C3)[nH]n2)on1 (single isomer, unassigned) [Example 90]"
13,0.25 to 1 µM,"Cc1cc(CC(=O)Nc2cc([C@H]3CC[C@@H](n4cc(C)[nH]c4=O)C3)[nH]n2)on1 (single isomer, unassigned) [Example 92]"
14,1 to 100 µM,"Cc1cc(CC(=O)Nc2cc([C@H]3CC[C@@H](n4cc(C(C)C)[nH]c4=O)C3)[nH]n2)on1 (single isomer, unassigned) [Example 93]"
15,≤ 0.1 µM,"Cc1cc(CC(=O)Nc2cc([C@H]3CC[C@@H](Oc4nnccc4C(C)C)C3)[nH]n2)on1 (single isomer, unassigned) [Example 97]"
16,≤ 0.1 µM,"Cc1cc(CC(=O)Nc2cc([C@H]3C[C@@H](OC(=O)NC4(C)CC4)CO3)[nH]n2)on1 (single isomer, unassigned) [Example 101]"
17,1 to 100 µM,"Cc1cc(CC(=O)Nc2cc([C@@H]3CC[C@H](N(C)C(=O)NC(C)C)C3)[nH]n2)on1 (single isomer, unassigned) [Example 103]"
18,≤ 0.1 µM,"Cc1cc(CC(=O)Nc2cc([C@@H]3CC[C@H](Oc4nnccc4C(C)C)C3)[nH]n2)on1 (single isomer, unassigned) [Example 104]"
19,1 to 100 µM,"Cc1cc(CC(=O)Nc2cc([C@H]3C[C@H](OC(=O)NC4(C)CC4)CO3)[nH]n2)on1 (single isomer, unassigned) [Example 108]"
20,1 to 100 µM,"Cc1cc(CC(=O)Nc2cc([C@@H]3C[C@@H](OC(=O)NC4(C)CC4)CO3)[nH]n2)on1 (single isomer, unassigned) [Example 109]"
21,0.25 to 1 µM,"COCc1nc2cc(Nc3cc([C@H]4CC[C@@H](OC(=O)NC(C)C)C4)[nH]n3)ncc2s1 (single isomer, unassigned) [Example 111]"
22,0.1 to 0.25 µM,"COCc1nc2cc(Nc3cc([C@@H]4CC[C@H](OC(=O)NC(C)C)C4)[nH]n3)ncc2s1 (single isomer, unassigned) [Example 112]"
23,1 to 100 µM,"CC(C)NC(=O)O[C@H]1CC[C@@H](c2cc(Nc3ccsn3)n[nH]2)C1 (single isomer, unassigned) [Example 113]"
24,1 to 100 µM,"CC(C)NC(=O)O[C@@H]1CC[C@H](c2cc(Nc3ccsn3)n[nH]2)C1 (single isomer, unassigned) [Example 114]"
25,0.1 to 0.25 µM,"Cc1cc(CC(=O)Nc2cc([C@@H]3CC[C@H](N4CC(C)(C)NC4=O)C3)[nH]n2)on1 (single isomer, unassigned) [Example 118]"
26,≤ 0.1 µM,"Cc1cc(CC(=O)Nc2cc([C@@H]3CC[C@H](Oc4nnccc4C)C3)[nH]n2)on1 (single isomer, unassigned) [Example 120]"
27,≤ 0.1 µM,"CC(C)NC(=O)O[C@@H]1CC[C@H](c2cc(Nc3nccc4ncsc34)n[nH]2)C1 (single isomer, unassigned) [Example 121]"
28,≤ 0.1 µM,"CC(C)NC(=O)O[C@H]1CC[C@@H](c2cc(Nc3nccc4ncsc34)n[nH]2)C1 (single isomer, unassigned) [Example 122]"

row,IC50,Structure (SMILES)
1,1 to 100 µM,"CC(C)NC(=O)N[C@@H]1CC[C@H](c2cc(Nc3ncccn3)n[nH]2)C1 (single isomer, unassigned) [Example 123]"
2,1 to 100 µM,"CC(C)NC(=O)N[C@H]1CC[C@@H](c2cc(Nc3ncccn3)n[nH]2)C1 (single isomer, unassigned) [Example 124]"
3,≤ 0.1 µM,"Cc1cc(CC(=O)Nc2cc([C@H]3CC[C@@H](Oc4nscc4C4CC4)C3)[nH]n2)on1 (single isomer, unassigned) [Example 127]"
4,≤ 0.1 µM,"Cc1cc(CC(=O)Nc2cc([C@@H]3CC[C@H](Oc4nscc4C4CC4)C3)[nH]n2)on1 (single isomer, unassigned) [Example 128]"
5,1 to 100 µM,"Cc1cc(CC(=O)Nc2cc([C@H]3CC[C@@H](NC(=O)CC(C)C)C3)[nH]n2)on1 (single isomer, unassigned) [Example 129]"
6,1 to 100 µM,"Cc1cc(CC(=O)Nc2cc([C@@H]3CC[C@H](NC(=O)CC(C)C)C3)[nH]n2)on1 (single isomer, unassigned) [Example 130]"
7,1 to 100 µM,"Cc1cc(CC(=O)Nc2cc([C@H]3CC[C@@H](NC(=O)c4ccccc4)C3)[nH]n2)on1 (single isomer, unassigned) [Example 131]"
8,1 to 100 µM,"Cc1cc(CC(=O)Nc2cc([C@@H]3CC[C@H](NC(=O)c4ccccc4)C3)[nH]n2)on1 (single isomer, unassigned) [Example 132]"
9,1 to 100 µM,"CCS(=O)(=O)N[C@@H]1CC[C@H](c2cc(NC(=O)Cc3cc(C)no3)n[nH]2)C1 (single isomer, unassigned) [Example 133]"
10,1 to 100 µM,"CCS(=O)(=O)N[C@H]1CC[C@@H](c2cc(NC(=O)Cc3cc(C)no3)n[nH]2)C1 (single isomer, unassigned) [Example 134]"
11,1 to 100 µM,"Cc1cc(CC(=O)Nc2cc([C@@H]3C[C@@H]3COC(=O)NC(C)C)[nH]n2)on1 (single isomer, unassigned) [Example 136]"
12,1 to 100 µM,"Cc1cc(CC(=O)Nc2cc([C@H]3C[C@H]3COC(=O)NC(C)C)[nH]n2)on1 (single isomer, unassigned) [Example 137]"
13,≤ 0.1 µM,"CC(C)NC(=O)O[C@@H]1CC[C@H](c2cc(Nc3nccn4nccc34)n[nH]2)C1 (single isomer, unassigned) [Example 138]"
14,≤ 0.1 µM,"CC(C)NC(=O)O[C@H]1CC[C@@H](c2cc(Nc3nccn4nccc34)n[nH]2)C1 (single isomer, unassigned) [Example 139]"
15,1 to 100 µM,"Cc1cc(CC(=O)Nc2cc([C@H]3CC[C@H](N(C)C(=O)NC(C)C)C3)[nH]n2)on1 (single isomer, unassigned) [Example 141]"
16,1 to 100 µM,"Cc1cc(CC(=O)Nc2cc([C@@H]3CC[C@@H](N(C)C(=O)NC(C)C)C3)[nH]n2)on1 (single isomer, unassigned) [Example 142]"
17,1 to 100 µM,"Cc1cc(CC(=O)Nc2cc([C@H]3CC[C@@H](NC(=O)OC(C)C)C3)[nH]n2)on1 (single isomer, unassigned) [Example 143]"
18,1 to 100 µM,"Cc1cc(CC(=O)Nc2cc([C@@H]3CC[C@H](NC(=O)OC(C)C)C3)[nH]n2)on1 (single isomer, unassigned) [Example 144]"
19,1 to 100 µM,"CNS(=O)(=O)N[C@@H]1CC[C@H](c2cc(NC(=O)Cc3cc(C)no3)n[nH]2)C1 (single isomer, unassigned) [Example 145]"
20,1 to 100 µM,"CNS(=O)(=O)N[C@H]1CC[C@@H](c2cc(NC(=O)Cc3cc(C)no3)n[nH]2)C1 (single isomer, unassigned) [Example 146]"
21,0.25 to 1 µM,"Cc1cc(CC(=O)Nc2cc([C@@H]3CC[C@H](N4CC5(CC5)NC4=O)C3)[nH]n2)on1 (single isomer, unassigned) [Example 338]"
22,0.25 to 1 µM,"Cc1cc(CC(=O)Nc2cc([C@H]3CC[C@@H](Oc4cccnc4)C3)[nH]n2)on1 (single isomer, unassigned) [Example 339]"
23,1 to 100 µM,"Cc1cc(CC(=O)Nc2cc([C@@H]3CC[C@H](Oc4cccnc4)C3)[nH]n2)on1 (single isomer, unassigned) [Example 340]"
24,1 to 100 µM,"Cc1cc(CC(=O)Nc2cc([C@H]3CC[C@@H](CC(=O)O)C3)[nH]n2)on1 (single isomer, unassigned) [Example 341]"
25,1 to 100 µM,"Cc1cc(CC(=O)Nc2cc([C@@H]3CC[C@H](CC(=O)O)C3)[nH]n2)on1 (single isomer, unassigned) [Example 342]"
26,1 to 100 µM,"Cc1cc(CC(=O)Nc2cc([C@H]3CC[C@H](CC(=O)O)C3)[nH]n2)on1 (single isomer, unassigned) [Example 343]"
27,1 to 100 µM,"Cc1cc(CC(=O)Nc2cc([C@@H]3CC[C@@H](CC(=O)O)C3)[nH]n2)on1 (single isomer, unassigned) [Example 344]"
